According to patent US9403806B1, “Cognition enhancing compounds and compositions, methods of making, and methods of treating” (NeuroSolis, Inc., priority 2010, dated 2016):
Read-outs that look alike come from different tables or passages of the source.

How the values were obtained:
[1] = system: pooled male human liver microsomes; assay: Metabolism by human liver microsomes, Example 33; assay type: in vitro ADME; conditions: for metabolism in human liver microsomes (in words): 6 hours incubation (FIGS. 4A, 4B); for rate of metabolism of S- versus R-enantiomer: human liver microsomes, as also in rat liver microsomes and FMO Supersomes
Description: Compounds were incubated with pooled male human liver microsomes (BD Biosciences, #452172) and an NADP-regenerating system in a phosphate buffer (pH 7.4) for a total of 6 hours. Aliquots were removed every 2 hours, and 1% formic acid was added to halt the reaction. Samples were centrifuged, filtered through 0.2 micron spinfilter and the amount of each compound in the supernatants was quantitated using LC/MS/MS.

[2] = biological target: T1, human muscarinic M3 receptors (Homo sapiens, UniProt P20309); assay: IP production in A9L cells with human M3 receptors (IPOne TR-FRET), Example 28; assay type: cell-based; conditions: for huM3/A9L Smax: percentage of maximal stimulation by carbachol; for huM3/A9L ED50 relative to CCh*: potency relative to carbachol at its EC50, semi-quantitative
T1 construct: host or cells: A9L cells
Description: (§1) Muscarinic M1 and M3 agonist activity was evaluated by measuring the stimulation of inositol phosphate (IP) production in the presence of lithium chloride from A9L cells transfected with expression plasmids containing human muscarinic M1 and M3 receptors, respectively. The cell lines were a gift from Professor W Messer, and the methods were as described in Tejada F R et al. J. Med. Chem. 2006; 49: 7518-31 except that the assay was scaled down to run in 384 well plates, and IP was measured in the cell lysates using the non-isotopic IPOne TR-FRET assay (CIS-BIO, Inc).
(§2) Cells were grown to 90% confluence in 384 well hi-base plates (Greiner Bio-One), compounds were added at suitable concentrations in growth medium containing 10 mM LiCl, buffered with an extra 10 mM HEPES (pH7.4), and incubated for 60 minutes at 37° C. Cells were lysed and assayed for IP following the manufacturer's instructions.
(§3) The value for a full agonist is 100%, while partial agonists give values below 100%.

[3] = biological target: T2, human muscarinic M1 receptors (Homo sapiens, UniProt P11229); assay: IP production in A9L cells with human M1 receptors (IPOne TR-FRET), Example 28; assay type: cell-based; conditions: for huM1/A9L Smax: percentage of maximal stimulation by carbachol; for huM1/A9L ED50 relative to CCh*: potency relative to carbachol at its EC50, semi-quantitative
T2 construct: host or cells: A9L cells
T2 sequence (P11229 1-460): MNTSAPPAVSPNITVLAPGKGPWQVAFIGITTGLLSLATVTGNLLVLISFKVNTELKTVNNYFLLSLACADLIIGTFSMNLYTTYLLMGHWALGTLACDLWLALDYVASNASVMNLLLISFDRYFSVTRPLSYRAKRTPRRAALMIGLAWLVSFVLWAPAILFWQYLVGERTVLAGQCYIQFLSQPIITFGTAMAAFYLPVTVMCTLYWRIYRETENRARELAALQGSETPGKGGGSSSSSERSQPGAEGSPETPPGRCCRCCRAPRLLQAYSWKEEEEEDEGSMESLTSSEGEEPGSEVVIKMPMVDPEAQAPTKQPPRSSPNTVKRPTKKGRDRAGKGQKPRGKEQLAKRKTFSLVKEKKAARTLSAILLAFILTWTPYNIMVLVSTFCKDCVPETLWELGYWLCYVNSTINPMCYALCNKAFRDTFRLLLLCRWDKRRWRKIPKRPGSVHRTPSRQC
Description: as §1, §2, §3

[4] = system: muscarinic M3 receptors in the salivary glands; assay: In vivo inositol phosphate increase in salivary glands, Example 44; set-up: species or system Long Evans Hooded rats; conditions: rat, 3 mg/kg sc, 5 mmole/kg LiCl
Description: (§4) In lithium chloride-treated laboratory rodents, engagement of muscarinic M1 receptors in the hippocampus may usefully be evaluated in vivo by measuring the increase in the tissue of inositol phosphate (Bymaster F P et al Brain Res 795 (1998) 179-190). This may also be extended to measure engagement of muscaric M3 receptors in the salivary glands.
(§5) Experimental compounds were administered subcutaneously at 3 mg/kg using standard techniques to Long Evans Hooded rats weighing 225 to 350 g, and which had been pretreated with a subcutaneous injection of lithium chloride at a suitable dose between 3 and 5 mmole/kg. At suitable times the animals were briefly anesthetized using 5% isoflurane and euthanized by decapitation. The brains and submaxillary salivary glands were rapidly dissected out, and the hippocampuses were dissected from the brains. The dissected tissues were homogenized in a suitable volume of ice-cold phosphate-buffered saline containing 10 mM lithium chloride (pH=7.4) using a tissue homogenizer, and used immediately or frozen in aliquots at −80° C. for future use. The concentration of inositol-1-phosphate was determined in the homogenates using the […] IP-One Terbium TR-FRET assay kit (Cisbio Bioassays, cat. #62IPAPEJ) according to the manufacturer's instructions.

[5] = biological target: T2, human muscarinic M1 receptors; assay type: cell-based; conditions: for huM1/A9L Smax: percentage of maximal stimulation by carbachol; for huM1/A9L Potency relative to carbachol: relative to the potency of carbachol at its EC50
Description: (§6) Muscarinic M1 and M3 agonist activity was evaluated by measuring the stimulation of inositol phosphate (IP) production in the presence of lithium chloride from A9L cells transfected with expression plasmids containing human muscarinic M1 and M3 receptors, respectively. The cell lines were a gift from Professor William Messer, and the methods were as described in Tejada et al. (J. Med. Chem. 2006; 49: 7518-31) except that the assay was scaled down to run in 384-well plates and the concentration of inositol-1-phosphate in the lysates was determined using the non-isotopic IP-One Terbium TR-FRET assay kit (Cisbio Bioassays, cat. #62IPAPEJ) according to the manufacturer's instructions.
as §2, with “384-well high-base, small-volume” for “384 well hi-base”, “(pH=7.4),” for “(pH7.4),”
as §3

[6] = biological target: T1, human muscarinic M3 receptors; assay type: cell-based; conditions: for huM3/A9L Smax: percentage of maximal stimulation by carbachol; for huM3/A9L Potency relative to carbachol: relative to the potency of carbachol at its EC50
Description: as §6
as §2, with “384-well high-base, small-volume” for “384 well hi-base”, “(pH=7.4),” for “(pH7.4),”
as §3

[7] = system: muscarinic M1 receptors in the hippocampus; assay: In vivo inositol phosphate increase in hippocampus, Example 44; set-up: species or system Long Evans Hooded rats; conditions: rat, 3 mg/kg sc, 5 mmole/kg LiCl
Description: as §4, §5

[8] = Blood and brain concentrations (rats), tail vein injection; assay type: in vivo, Long-Evans Hooded rats; conditions: male, Long-Evans Hooded, rat, in vivo, 3 mg/kg, 3 mg/kg tail vein injection, read-out: Brain Concentration at 1 hr
Description: Long-Evans Hooded rats (Charles River: male, 230-300 g) were dosed with solutions of test compounds in PBS by tail vein injection. The dose for all compounds was 3 mg/kg. At one hour, the animals were anesthetized with isoflurane, and then euthanized by decapitation. Trunk blood was collected into a 1.5 mL microcentrifuge tube containing 15 U Heparin, and the plasma recovered after centrifugation. Brains were dissected, weighed, immediately chilled to 4° C., and homogenized using a PowerGen 125 homogenizer in five volumes of ice-cold 2% formic acid. Proteins were precipitated from plasma and brain homogenate with nine and five volumes respectively of ice-cold 2% formic acid and clarified by centrifugation. The supernatant was ultra-filtered by centrifugation through a 3K MWCO spin column (Pall Life Sciences), following the manufacturer's instructions. The concentration of compound in the ultra-filtrate was subjected to reverse-phase liquid chromatography using a 150×2.1 mm Agent C8 reverse-phase column on a Shimadzu Prominence LC, eluting the compounds with a gradient of 2% to 50% of acetonitrile+0.1% formic acid for all compounds. The concentration of the compound in the column effluent was measured using an Applied Biosystems API-3200 triple quadrupole mass spectrometer equipped with an electrospray sample injection system. The counts of the characteristic parent and product ions of each test compound were converted to concentration units by comparison with a standard curve.

[9] = in vitro; assay type: in vitro ADME; conditions: pH 7.4, 24 hours, room temperature
Description: PAMPA is a useful in vitro model for predicting the passive diffusion of drugs across the blood-brain barrier (Li, D et al Eur jour of Med Chem 38 (2003) 223-232).
Compounds were diluted in a 100 mM phosphate buffer (pH 7.4) to a concentration of 400 μM and the stock solutions were placed into a 96-well filter plate (Millipore, #MAIPN4510) pre-wetted with 20 mg/mL porcine brain polar lipid extract in 100% dodecane (Avanti, #131022) and placed into a 96-well acceptor plate (Millipore, #MSSACCEPTOR) whose wells were filled with the same phosphate buffer as in the filter plate. This assembly was incubated at room temperature for 24 hours. The experiment was halted by separating the filter plate from the acceptor plate. Aliquots were removed from the filter plate wells, acceptor plate wells, and stock solutions, and 1% trifluoroacetic acid was added to each. All solutions were measured by LC/UV, and passive diffusion rates were calculated using the peak area values (Avdeef, Alex. 2003. Page 147 in Absorption and Drug Development. Hoboken, N.J.: John Wiley & Sons).

[10] = system: pooled male human liver microsomes; assay: Metabolism in human liver microsomes, Example 45; assay type: in vitro ADME
Description: Aliquots were removed every 2 hours, and 1% formic acid was added to halt the reaction. Samples were centrifuged, filtered through 0.2 micron spinfilter, and the amount of each compound in the supernatants was quantitated using LC/MS/MS as follows. The ultra-filtrates were subjected to reverse-phase liquid chromatography using a 150×2.1 mm Agilent C8-reverse phase column on a Shimadzu Prominence LC, eluting the compound with a gradient of 2%-50% acetonitrile+0.1% formic acid over 5 minutes. The concentration of the compound in the column effluent was measured using an Applied Biosystems API-3200 triple quadrupole mass spectrometer equipped with a Turbo V source (electrospray sample injection) system. The counts of the characteristic parent ions of the protonated compound and product ions were converted to concentration by comparison with a standard calibration curve. The parent/daughter ion pairs that were monitored for each compound were: 166.0/82.0 (105), 166.0/82.0 (106b), 166.0/82.0 (106a), 169.0/83.0 (136), 168.2/83.0 (121), 168.1/83.0 (122a), 168.1/83.0 (122b), 170.2/83.0 (134), 168.2/84.1 (135), 168.1/84.1 (137) and 169.2/82.1 (138).

T1 sequence (P20309 whole entry): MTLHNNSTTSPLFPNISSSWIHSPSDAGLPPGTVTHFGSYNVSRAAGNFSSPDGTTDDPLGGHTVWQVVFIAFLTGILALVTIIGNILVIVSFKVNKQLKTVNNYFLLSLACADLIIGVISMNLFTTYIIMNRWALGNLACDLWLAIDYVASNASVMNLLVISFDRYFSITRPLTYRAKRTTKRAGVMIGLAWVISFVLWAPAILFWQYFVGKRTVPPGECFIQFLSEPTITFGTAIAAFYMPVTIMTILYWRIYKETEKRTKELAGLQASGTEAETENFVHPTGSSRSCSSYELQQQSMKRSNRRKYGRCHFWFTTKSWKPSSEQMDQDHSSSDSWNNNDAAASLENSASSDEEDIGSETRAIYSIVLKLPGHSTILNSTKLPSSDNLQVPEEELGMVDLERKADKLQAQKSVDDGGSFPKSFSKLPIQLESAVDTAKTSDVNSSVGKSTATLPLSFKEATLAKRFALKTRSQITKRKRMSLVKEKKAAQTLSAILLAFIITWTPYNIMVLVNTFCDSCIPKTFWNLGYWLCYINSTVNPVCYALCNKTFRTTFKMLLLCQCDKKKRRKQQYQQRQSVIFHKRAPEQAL

| SMILES | metabolism in human liver microsomes (in words) [1] | huM3/A9L Smax [2] | huM3/A9L ED50 relative to CCh* [2] | huM1/A9L Smax [3] | huM1/A9L ED50 relative to CCh* [3] | Increase in Inositol Phosphate in Salivary Gland/Control ([4]; 3 mg/kg) | huM1/A9L Smax [5] | huM1/A9L Potency relative to carbachol [5] | huM3/A9L Smax [6] | huM3/A9L Potency relative to carbachol [6] | Increase in Inositol Phosphate in Hippocampus/Control ([7]; 3 mg/kg) | concentration at 1 h [8] | PAMPA Permeability Coefficient (×10^6) ([9]; 400 μM) | Loss at 6 hrs (%) [10] | rate of metabolism of S- versus R-enantiomer [1] | Increase in Inositol Phosphate in Salivary Gland/Control [4] | Increase in Inositol Phosphate in Hippocampus/Control [7] | Papp at 24 h, 400 µM ([9]; PAMPA, pH 7.4, 400 μM, read-out: PAMPA Permeability Coefficient (×10^6)) |
| --- | --- | --- | --- | --- | --- | --- | --- | --- | --- | --- | --- | --- | --- | --- | --- | --- | --- | --- |
| Cc1noc([C@@H]2CCCNC2)n1 [Compound 3b, R-(−)-3-methyl-5-(piperidin-3-yl)-1,2,4-oxadiazole] | metabolized significantly less in human liver microsomes than in rat liver microsomes | 47% | − (− potency <0.5-0.1x CCh) | 147% | +/− (+/− potency 0.5-2x CCh) |  |  |  |  |  |  |  |  |  |  |  |  |  |
| [2H]C([2H])([2H])c1noc(C23CNC([2H])([2H])C2C3)n1 (stereo not shown) [Compound 137, 5-(6,6-d2-3-azabicyclo[3.1.0]hexan-1-yl)-3-methyl-1,2,4-oxadiazole] |  |  |  |  |  | 198% | 97% | 1.26 | 62% | 0.19 | 503% | 5.5 µM | 4.00 ×10^6 | 24% |  |  |  |  |
| [2H]C([2H])([2H])c1noc([C@H]2CCCNC2)n1 [Compound 7a, S-(+)-3-D3-methyl-5-(piperidin-3-yl)-1,2,4-oxadiazole] | metabolized significantly less in human liver microsomes than in rat liver microsomes | 76% | −− (−− potency <0.1x CCh) | 81% | +/− (+/− potency 0.5-2x CCh) |  |  |  |  |  |  |  |  |  | metabolized faster than the R-enantiomers |  |  |  |
| Cc1noc([C@H]2CCCNC2)n1 [Compound 3a, S-(+)-3-methyl-5-(piperidin-3-yl)-1,2,4-oxadiazole] | metabolized significantly less in human liver microsomes than in rat liver microsomes | 66% | +/− (+/− potency 0.5-2x CCh) | 129% | + (+ potency 2-10x CCh) |  |  |  |  |  |  |  |  |  | metabolized faster than the R-enantiomers |  |  |  |
| [2H]C([2H])([2H])c1noc(C23CNCC2C3)n1 (stereo not shown) [Compound 138, 5-(3-azabicyclo[3.1.0]hexan-1-yl)-3-methyl-d3-1,2,4-oxadiazole] |  |  |  |  |  |  | 93% | 1.34 | 43% | 0.37 |  | 5.5 µM |  | 29% |  | 217% | 357% | 4.1 ×10⁻⁶ cm/s |
| [2H]C([2H])([2H])c1noc([C@@H]2CCCNC2)n1 [Compound 7b, R-(−)-3-D3-methyl-5-(piperidin-3-yl)-1,2,4-oxadiazole] | metabolized significantly less in human liver microsomes than in rat liver microsomes | 86% | +/− (+/− potency 0.5-2x CCh) | 90% | + (+ potency 2-10x CCh) |  |  |  |  |  |  |  |  |  |  |  |  |  |
